Assay results taken from patent US20140018416A1, “THERAPEUTIC AGENT FOR CORNEAL SENSORY NERVE DAMAGE CONTAINING SEMAPHORIN INHIBITOR AS ACTIVE INGREDIENT” (DAINIPPON SUMITOMO PHARMA CO., LTD, priority 2011, published 2014).
Read-outs that look alike come from different tables or passages of the source.

Columns and labels:
[1] = Solubility (physicochemical properties of isolated compounds); conditions: water, hexane, methanol, DMSO
[2] = Change over time in stability in PBS (phosphate buffer); assay type: physicochemical; conditions: 100 μg/ml in PBS, 37° C.
Protocol: Vinaxanthone (SPF-3059-5) and SPF-3059-1 were each dissolved in PBS (Dulbecco's PBS(-)) to a concentration of 100 μg/ml. The obtained solutions were preserved at 37° C., and the amount of the agent remaining in the solution was quantified by HPLC in individual time points from initiation of the preservation until 4 weeks after initiation of the preservation, so that a change over time in the remaining percentages was examined. The same HPLC conditions as those of Example 10 were applied.

[3] = Retention of vinaxanthone in corneal tissues after eye drops administration; assay type: in vivo; conditions: rabbit
Protocol: Rabbits (Kbs: JW, healthy, male, body weight: 2.00 to 2.49 kg) were each administered with 50 μL of a PBS solution (0.12 M phosphate buffer (pH 7.4)) of vinaxanthone (0.5, 1.5 and 5.0 mg/mL) via eye drops administration onto the cornea of the right eye, and their eyes were then closed for 30 seconds. Thereafter, 0.5, 2, and 6 hours after completion of the administration, the rabbits were subjected to euthanasia, and the excised eyeballs were then washed with a normal saline. Thereafter, the cornea was collected from each eyeball. The cornea was homogenized, and vinaxanthone was then extracted therefrom. A change over time in the content and concentration of vinaxanthone in the corneal tissues was examined using HPLC.

[4] = system: corneal sensory nerve in corneal graft; experiment: Mouse keratoplasty model: regeneration of nerve fibers in corneal graft, corneal sensitivity, corneal vascularization; assay type: in vivo; conditions: vs control group
Description: In this experiment, there were used genetically modified mice (P0-Cre/Floxed-EGFP mouse), in which corneal parenchymal cells, corneal endothelial cells, and nerves expressed a type of fluorescent protein, Green Fluorescent Protein (GFP), in the cornea. Using these mice, corneal sensory nerve fibers traveling in the cornea can easily be observed by removing a layer of corneal endothelial cells.
The cornea derived from a syngeneic wild-type mouse was transplanted into each of the above-mentioned mice. Thereafter, 50 ul of vinaxanthone (which had been dissolved in Rinderon (1 mg/ml betamethasone sodium phosphate injection solution) to a concentration of 0.1 mg/mL) was administered to the mice via subconjunctival injection immediately after completion of the operation and then, every two days in a total of 11 times. Only a solvent containing no drugs was administered in the same amount as described above to a control group. The removal of the suture was conducted one week after completion of the operation. Three weeks after completion of the operation, corneal sensitivity was evaluated, the mice were then subjected to euthanasia, and eyeballs were then excised. A comparison was made regarding the regeneration of nerve fibers in the corneal graft. Corneal sensitivity was evaluated by measuring corneal sensitivity in the center of the corneal graft every week after completion of the operation, using a Cochet-Bonnet corneal esthesiometer. […]
Thereafter, a total of the lengths thereof were measured, and a comparison was then made between the vinaxanthone administration group and the control group.

[5] = molecular target: T1, mouse semaphorin 3A (Sema3A) (Mus musculus, UniProt O08665); experiment: Inhibitory activity on collapse activity of Sema3A (growth cone retraction, chicken embryo dorsal root ganglion); assay type: cell-based
T1 sequence (O08665 21-772): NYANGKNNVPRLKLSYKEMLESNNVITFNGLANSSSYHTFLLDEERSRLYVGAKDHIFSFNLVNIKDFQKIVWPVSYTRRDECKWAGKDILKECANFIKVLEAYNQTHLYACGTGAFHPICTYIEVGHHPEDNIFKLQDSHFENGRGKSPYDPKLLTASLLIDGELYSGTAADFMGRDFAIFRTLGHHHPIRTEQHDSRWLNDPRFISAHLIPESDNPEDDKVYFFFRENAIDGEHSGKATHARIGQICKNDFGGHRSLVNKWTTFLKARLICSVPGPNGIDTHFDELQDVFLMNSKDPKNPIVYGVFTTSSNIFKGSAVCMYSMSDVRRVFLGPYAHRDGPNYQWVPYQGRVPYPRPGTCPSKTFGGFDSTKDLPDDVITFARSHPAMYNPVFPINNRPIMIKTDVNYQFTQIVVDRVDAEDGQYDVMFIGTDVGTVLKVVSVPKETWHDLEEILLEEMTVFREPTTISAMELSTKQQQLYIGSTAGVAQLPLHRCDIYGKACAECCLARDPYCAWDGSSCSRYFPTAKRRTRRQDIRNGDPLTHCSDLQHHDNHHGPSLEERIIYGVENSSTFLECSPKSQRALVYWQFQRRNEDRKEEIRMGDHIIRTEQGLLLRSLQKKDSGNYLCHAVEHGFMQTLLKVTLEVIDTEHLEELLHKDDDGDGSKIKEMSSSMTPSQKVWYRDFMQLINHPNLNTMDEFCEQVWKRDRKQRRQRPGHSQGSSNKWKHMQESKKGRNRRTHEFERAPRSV
Protocol: A polylysine-coated 96-well plate (Sumitomo Bakelite Co., Ltd.) was further coated with laminin (20 μg/ml laminin, room temperature, 1 hour). Then, 100 μl of a medium (F12 medium containing 10% fetal bovine serum, 20 ng/ml NGF, 100 units/ml penicillin, and 100 μg/ml streptomycin) was added to each well. Thereafter, a dorsal root ganglion excised from a 7-day-old chicken embryo was inoculated into the resulting well, and the obtained mixture was then cultured under conditions consisting of 16 to 20 hours, 5% CO2 and 37° C. Thereafter, the compounds described in Example 3 above were each added in different concentrations to the resulting culture, and the obtained mixture was then cultured for 1 hour. Thereafter, 2 units/ml mouse semaphorin 3A (Sema3A) was added to the culture, and the obtained mixture was further cultured for 1 hour. One hour after initiation of the culture, glutaraldehyde was added to the culture, such that it promptly could reach a final concentration of 1%. Then, the obtained mixture was then left at a room temperature for 15 minutes to fix a tissue section. Thereafter, the percentage of the retracted growth cone was measured under a microscope. A well, to which no Sema3A had been added, was used as a control. The percentage of growth cone retraction in a negative control group (to which neither the compound nor Sema3A was added) was defined as (A)%; the percentage of growth cone retraction in a positive control group (to which the compound had not been added but Sema3A was added) was defined as (B)%; and the percentage of growth cone retraction in a test group (to which both the compound and Sema3A were added) was defined as (C)%. The concentration of each compound that held the formula C=(A+B)/2 was defined as an IC50 value.

Question: With `CC(=O)c1cc2c(=O)c3cc(O)c(O)cc3oc2c(C(C)=O)c1-c1coc2cc(O)c(O)cc2c1=O` [SPF-3059-26] as the molecule, how does the Solubility [1] read?
Answer: Insoluble in water and hexane, soluble in methanol and DMSO

Question: With `CC(=O)c1cc2c(=O)c3c(C(=O)O)c(O)c(O)cc3oc2c(C(C)=O)c1-c1coc2cc(O)cc(C(=O)O)c2c1=O` [SPF-3059-12] as the molecule, how does the Solubility [1] read?
Answer: Insoluble in water and hexane, soluble in methanol and DMSO

Question: With `CC(=O)c1cc2c(=O)c3c(C(=O)O)cc(O)cc3oc2c(C(C)=O)c1-c1coc2cc(O)c(O)c(C(=O)O)c2c1=O` [SPF-3059-4] as the molecule, how does the Solubility [1] read?
Answer: Insoluble in water and hexane, soluble in methanol and DMSO

Question: With `CC(=O)c1c(C)c(C(=O)C2COc3cc(O)c(O)c(C(=O)O)c3C2=O)cc2c(=O)c3c(C(=O)O)c(O)c(O)cc3oc12` (centres unmarked) [SPF-3059-1, reference compound] as the molecule, how does the “Time until decomposed in an almost total amount in PBS” value [2] read?
Answer: approximately 1 week

Question: Which Solubility [1] does the source give for `CC(=O)c1cc2c(=O)c3c(C(=O)O)c(O)c(O)cc3oc2c(C(C)=O)c1-c1coc2cc(O)c(O)cc2c1=O` [SPF-3059-24] here?
Answer: Insoluble in water and hexane, soluble in methanol and DMSO

Question: With `CC(=O)c1cc2c(=O)c3c(C(=O)O)c(O)c(O)cc3oc2c(C(C)=O)c1-c1coc2cc(O)c(O)c(C(=O)O)c2c1=O` [SPF-3059-5, vinaxanthone] as the molecule, how does the concentration at 6 h ([3]; male, Kbs: JW, cornea, topical, 5 mg/mL (50 μL eye drop), 50 μL eye drops of 5.0 mg/mL PBS solution, 6 hours after administration, read-out: Concentration of vinaxanthone retained in the cornea) read?
Answer: > 75 ng/mL

Question: And the “Time for which the concentration in the cornea considered necessary for the expression of drug effects was retained” value ([3]; eye drop of 0.5 mg/mL solution)?
Answer: 0.5 h

Question: And the “Transfer into the corneal tissues” value ([3]; eye drops 0.5, 1.5 and 5.0 mg/mL)?
Answer: transferred into the corneal tissues in an applied concentration/dose dependent manner

Question: What about the “Regeneration of nerve fibers in the corneal graft (total length of regenerated fibers)” value ([4]; 50 ul of 0.1 mg/mL subconjunctival injection, every two days, 11 times, three weeks after operation, p<0.01) of the same molecule?
Answer: promoted

Question: What about the “Corneal sensitivity in the center of the corneal graft (Cochet-Bonnet corneal esthesiometer, blink reflection)” value ([4]; three weeks after completion of the operation, p<0.01) of the same molecule?
Answer: improved

Question: And the “Vascularization into the corneal graft (total length of CD31-positive newly formed blood vessels)” value ([4]; three weeks after operation, no significant difference)?
Answer: not promoted

Question: What about the “Time for which the compound was stable in PBS” value [2] of the same molecule?
Answer: ≥ 4 weeks

Question: What about the “Remaining percentage in PBS” value ([2]; until 4 weeks after initiation of the preservation, HPLC) of the same molecule?
Answer: ≥ 96%

Question: And the IC50 ([5]; as quoted in Example 2, converted from ng/mL, read-out: IC50 value obtained by the in vitro experiment (inhibitory activity on the collapse activity of Sema3A in Example 4) (converted))?
Answer: 0.13 µM

Question: What about the IC50 ([5]; as quoted in Example 2, read-out: IC50 value obtained by the in vitro experiment (inhibitory activity on the collapse activity of Sema3A in Example 4) (converted)) of the same molecule?
Answer: 0.13 µM

Question: For `CC(=O)c1cc2c(=O)c3cc(O)c(O)cc3oc2c(C(C)=O)c1-c1coc2cc(O)c(O)c(C(=O)O)c2c1=O` [SPF-3059-2], which IC50 ([5]; 2 units/ml mouse Sema3A, 7-day-old chicken embryo dorsal root ganglion, read-out: IC50 (inhibition of Sema3A-induced growth cone retraction)) is on record?
Answer: < 0.188 µM

Question: With `CC(=O)c1cc2c(=O)c3c(C(=O)O)cc(O)cc3oc2c(C(C)=O)c1-c1coc2cc(O)c(O)cc2c1=O` [SPF-3059-25] as the molecule, how does the Solubility [1] read?
Answer: Insoluble in water and hexane, soluble in methanol and DMSO
